From patent US20230348454A1, “COMPOUNDS AS MODULATORS OF BIS-PHOSPHOGLYCERATE MUTASE FOR THE TREATMENT OF SICKLE CELL DISEASE” (Genzyme Corporation, priority 2020, published 2023)
Where two headings read alike, the source gives them in different places.

Experiments:
[1] = target: T1, hBPGM (Homo sapiens, UniProt P07738); test: BPGM synthase assay; assay type: biochemical; settings: Table 6; read-out: huBPGM: synthase Enzyme IC50
T1 sequence (P07738 1-259): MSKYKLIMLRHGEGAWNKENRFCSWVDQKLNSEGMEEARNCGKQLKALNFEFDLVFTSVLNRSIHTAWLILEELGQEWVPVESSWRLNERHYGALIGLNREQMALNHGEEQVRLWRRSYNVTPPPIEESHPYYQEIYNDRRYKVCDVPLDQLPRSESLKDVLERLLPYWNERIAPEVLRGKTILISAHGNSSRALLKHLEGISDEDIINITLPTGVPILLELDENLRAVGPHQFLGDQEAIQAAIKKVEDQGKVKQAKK
Summary of the method: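 The enzyme solution held 5 nM BPGM with 0.4 U/mL coupling GAPDH in Tris pH 7.4, 3.23 mM KH2PO4, 1 mM DTT, and compounds were pre-incubated 30 min at RT. Substrate solution (2 mM NAD, 20 μM 3PG, 800 μM GAP) reacted 60 min before a koningic acid quench. NADH fluorescence (360/460) and diaphorase/resazurin-derived resorufin (544/590) were read.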

[2] = target: T2, human Bisphosphoglycerate mutase (hBPGM) (Homo sapiens, UniProt P07738); test: BPGM phosphatase assay; assay type: biochemical
T2 sequence (P07738 1-259): T1 sequence (P07738 1-259)
Description: The following materials were used in this assay: Tris buffer (50 mM Tris, 0.01% Tween 20, pH 7.4); cyclohexylammonium salt of 2,3-BPG (stock solution of 500 mM in ultapure distilled water; human Bisphosphoglycerate mutase (hBPGM; stock solution of 110 μM in Standard Buffer); 3-Phosphoglyceric acid (3-PG; stock solution of 100 mM in ultrapure distilled water); 384-Well Polystyrene Plates (Fisherbrand™, Catalog No.: 12-566-625); BIOMOL GREEN REAGENT (Enzo life sciences, BML-AK111-0250); and 1 mM DMSO stock of exemplary compounds.
A 3-PG enzyme mix solution (final enzyme concentration 62.5 nM, 3-PG concentration at 50 µM, 14.5 uL) was added to onto a 384-well clear plate. Solutions of the test compounds were then added to the plate and the DMSO content was normalized across the plate. The plate was incubated at RT for 15 min. Next, the substrate 2,3-BPG (5 μL) was added to all the wells, and the plate was sealed and incubated for 24 hr at RT. After incubation, BIOMOL green dye (40 μL) was added to all the wells, the plate was shaken to mix, and the plate was incubated at RT for 20-30 min. Absorbance measurements were recorded at 620 nm.

[3] = Table 6, read-out: huBPGM: phosphatase Enzyme EC50

Compound: Cc1nc(CNc2cccnn2)sc1-c1cccc(-c2cc(F)c3nn[nH]c3c2F)n1 [Example 95]
- IC50 [1]: 25 nM
- EC50 [2, 3]: 25 nM

Compound: CC(=O)NCc1nc(C)c(-c2csc(-c3cc(F)c(O)c(F)c3F)n2)s1 [Example 96]
- IC50 [1]: 1600 nM
- EC50 [2, 3]: 1000 nM

Compound: Cc1nc(CNC(=O)N2CC(O)C2)sc1-c1csc(-c2cc(F)c(O)c(F)c2F)n1 [Example 97]
- IC50 [1]: 1800 nM
- EC50 [2, 3]: 6900 nM

Compound: Cc1nc(COC(C)C(=O)N(C)C)sc1-c1csc(-c2cc(F)c(O)c(F)c2F)n1 (stereo not drawn) [Example 98]
- IC50 [1]: 2200 nM
- EC50 [2, 3]: 380 nM

Compound: Cc1nc(COCC(=O)O)sc1-c1csc(-c2cc(F)c(O)c(F)c2F)n1 [Example 99]
- IC50 [1]: 4700 nM
- EC50 [2, 3]: 7800 nM

Compound: Cc1nc(COc2ccccn2)sc1-c1csc(-c2cc(F)c3[nH]nnc3c2)n1 [Example 100]
- IC50 [1]: 310 nM
- EC50 [2, 3]: 57 nM

Compound: Cc1nc(COc2ccccn2)sc1-c1csc(-c2cc(F)c(O)c(F)c2F)c1 [Example 102]
- IC50 [1]: 620 nM
- EC50 [2, 3]: 45 nM

Compound: CC(=O)NCc1nc(C)c(-c2csc(-c3cc(F)c4[nH]nnc4c3)n2)s1 [Example 103]
- IC50 [1]: 930 nM
- EC50 [2, 3]: > 25000 nM

Compound: Cc1nc(COCC(=O)N2CCN(CCO)CC2)sc1-c1csc(-c2cc(F)c(O)c(F)c2F)n1 [Example 104]
- IC50 [1]: 2300 nM
- EC50 [2, 3]: > 25000 nM

Compound: Cc1nc(COC(=O)N(C)C)sc1-c1cccc(-c2cc(F)c3nn[nH]c3c2F)n1 [Example 125]
- IC50 [1]: 23 nM
- EC50 [2, 3]: 2700 nM

Compound: Cc1nc(CNc2ncccn2)sc1-c1cccc(-c2cc(F)c3nn[nH]c3c2F)n1 [Example 126]
- IC50 [1]: 21 nM
- EC50 [2, 3]: > 25000 nM

Compound: Cc1nc(COCC(=O)N2CCCC2)sc1-c1csc(-c2cc(F)c(O)c(F)c2F)n1 [Example 127]
- IC50 [1]: 430 nM
- EC50 [2, 3]: 380 nM

Compound: Cc1ccnc(OCc2nc(C)c(-c3cccc(-c4cc(F)c5nn[nH]c5c4F)n3)s2)n1 [Example 130]
- IC50 [1]: 15 nM
- EC50 [2, 3]: 10000 nM

Compound: Cc1nc(COc2ncccn2)sc1-c1cccc(-c2ccc3nn[nH]c3c2)n1 [Example 131]
- IC50 [1]: 510 nM
- EC50 [2, 3]: 570 nM

Compound: Cc1nc(COc2ncc(C(=O)O)cn2)sc1-c1cccc(-c2cc(F)c3nn[nH]c3c2F)n1 [Example 135]
- IC50 [1]: 160 nM
- EC50 [2, 3]: 240 nM

Compound: Cc1cnc(OCc2nc(C)c(-c3cccc(-c4cc(F)c5nn[nH]c5c4)n3)s2)nc1C [Example 136]
- IC50 [1]: 200 nM
- EC50 [2, 3]: 70 nM

Compound: Cc1nc(COC(=O)N(C)C)sc1-c1csc(-c2cc(F)c(O)c(F)c2F)n1 [Example 137]
- IC50 [1]: 230 nM
- EC50 [2, 3]: 200 nM

Compound: Cc1nc(CNC(=O)C(C)CN(C)C)sc1-c1cccc(-c2cc(F)c3nn[nH]c3c2F)n1 (stereo not drawn) [Example 138]
- IC50 [1]: 960 nM
- EC50 [2, 3]: > 25000 nM

Compound: Cc1nc(COc2ncccn2)sc1-c1cccc(-c2cc[n+]([O-])cc2)n1 [Example 139]
- IC50 [1]: > 25000 nM
- EC50 [2, 3]: > 25000 nM

Compound: Cc1nc(COc2ncccn2)sc1-c1cccc(-c2cc(F)c3[nH]nnc3c2)n1 [Example 141]
- IC50 [1]: 54 nM
- EC50 [2, 3]: 57 nM

Compound: COc1cnc(OCc2nc(C)c(-c3cccc(-c4cc(F)c5nn[nH]c5c4)n3)s2)nc1 [Example 142]
- IC50 [1]: 260 nM
- EC50 [2, 3]: 40 nM

Compound: CCc1cnc(OCc2nc(C)c(-c3cccc(-c4cc(F)c5nn[nH]c5c4F)n3)s2)nc1 [Example 144]
- IC50 [1]: 330 nM
- EC50 [2, 3]: 40 nM

Compound: Cc1nc(COc2ncccn2)sc1-c1csc(-c2cc(F)c3[nH]nnc3c2)c1 [Example 145]
- IC50 [1]: 250 nM
- EC50 [2, 3]: 30 nM

Compound: Cc1nc(COC(=O)N2CCN(C)CC2)sc1-c1cccc(-c2cc(F)c3nn[nH]c3c2)n1 [Example 147]
- IC50 [1]: 550 nM
- EC50 [2, 3]: 490 nM

Compound: Cc1nc(COc2ncccn2)sc1-c1cccc(-c2cc(F)c(O)c(F)c2F)c1 [Example 148]
- IC50 [1]: 1200 nM
- EC50 [2, 3]: 250 nM

Compound: Cc1nc(COc2ncccn2)sc1-c1cccc(-c2ccc3nnc(O)n3c2)n1 [Example 151]
- IC50 [1]: 1500 nM
- EC50 [2, 3]: 20000 nM

Compound: Cc1cnc(OCc2nc(C)c(-c3cccc(-c4cc(F)c5nn[nH]c5c4)n3)s2)nc1 [Example 152]
- IC50 [1]: 40 nM
- EC50 [2, 3]: 30 nM

Compound: Cc1ccnc(OCc2nc(C)c(-c3cccc(-c4cc(F)c5nn[nH]c5c4)n3)s2)n1 [Example 153]
- IC50 [1]: 81 nM
- EC50 [2, 3]: 60 nM

Compound: Cc1nc(COc2ncccn2)sc1-c1csc(-c2cc(F)c(O)c(F)c2F)c1 [Example 154]
- IC50 [1]: 110 nM
- EC50 [2, 3]: 49 nM

Compound: Cc1nc(CNc2ncccn2)sc1-c1cccc(-c2cc(F)c3nn[nH]c3c2)n1 [Example 155]
- IC50 [1]: 44 nM
- EC50 [2, 3]: 40 nM

Compound: COC(=O)NCc1nc(C)c(-c2csc(-c3ccc4[nH]nnc4c3F)n2)s1 [Example 156]
- IC50 [1]: 200 nM
- EC50 [2, 3]: 150 nM

Compound: Cc1nc(COc2ncccn2)sc1-c1cccc(-c2ccc(C(=O)NS(=O)(=O)c3ccccc3)cc2)n1 [Example 157]
- IC50 [1]: 170 nM
- EC50 [2, 3]: 240 nM

Compound: Cc1nc(COc2ncccn2)sc1-c1cccc(-c2ccc(C#N)c(O)c2)n1 [Example 158]
- IC50 [1]: 240 nM
- EC50 [2, 3]: 530 nM

Compound: Cc1nc(COc2ncccn2)sc1-c1cccc(-c2ccc(O)c(C#N)c2)n1 [Example 159]
- IC50 [1]: 290 nM
- EC50 [2, 3]: 1800 nM

Compound: Cc1nc(COCC(=O)N(C)C)sc1-c1csc(-c2cc(F)c(O)c(F)c2F)n1 [Example 160]
- IC50 [1]: 460 nM
- EC50 [2, 3]: 520 nM

Compound: Cc1nc(COCC(=O)N(C)C)sc1-c1cccc(-c2cc(F)c3nn[nH]c3c2)n1 [Example 163]
- IC50 [1]: 170 nM
- EC50 [2, 3]: 260 nM

Compound: Cc1nc(CNC(=O)c2cccnn2)sc1-c1cccc(-c2cc(F)c(O)c(F)c2F)n1 [Example 164]
- IC50 [1]: 680 nM
- EC50 [2, 3]: 550 nM

Compound: Cc1nc(CNc2ncccn2)sc1-c1csc(-c2cc(F)c(O)c(F)c2F)n1 [Example 165]
- IC50 [1]: 92 nM
- EC50 [2, 3]: 110 nM

Compound: COC(=O)NCc1nc(C)c(-c2csc(-c3ccc4[nH]nnc4c3F)n2)s1 [Example 166]
- IC50 [1]: 110 nM
- EC50 [2, 3]: 170 nM

Compound: Cc1nc(COC(=O)N(C)C)sc1-c1cccc(-c2cc(F)c3nn[nH]c3c2)n1 [Example 167]
- IC50 [1]: 130 nM
- EC50 [2, 3]: 75 nM

Compound: Cc1nc(CNc2ncccn2)sc1-c1cccc(-c2cc(F)c(O)c(F)c2F)n1 [Example 168]
- IC50 [1]: 220 nM
- EC50 [2, 3]: 130 nM

Compound: Cc1nc(COC(=O)N(C)C)sc1-c1cccc(-c2cc(F)c(O)c(F)c2F)n1 [Example 169]
- IC50 [1]: 560 nM
- EC50 [2, 3]: 330 nM

Compound: Cc1nc(COCC(=O)N(C)C)sc1-c1cccc(-c2cc(F)c(O)c(F)c2F)n1 [Example 170]
- IC50 [1]: 1100 nM
- EC50 [2, 3]: 880 nM

Compound: COC(=O)NCc1nc(C)c(-c2cccc(-c3cc(F)c(O)c(F)c3F)n2)s1 [Example 171]
- IC50 [1]: 810 nM
- EC50 [2, 3]: 1900 nM

Compound: Cc1nc(COc2ncccn2)sc1-c1cccc(-c2cc(F)c(O)c(F)c2F)n1 [Example 172]
- IC50 [1]: 280 nM
- EC50 [2, 3]: 240 nM

Compound: COC(=O)NCc1nc(C)c(-c2csc(-c3ccc(O)c(C#N)c3F)n2)s1 [Example 173]
- IC50 [1]: 1500 nM
- EC50 [2, 3]: > 25000 nM

Compound: Cc1nc(CNc2ncccn2)sc1-c1csc(-c2cc(F)c3[nH]nnc3c2)n1 [Example 175]
- IC50 [1]: 79 nM
- EC50 [2, 3]: 30 nM

Compound: Cc1nc(COc2cccnn2)sc1-c1csc(-c2cc(F)c3[nH]nnc3c2)n1 [compound 7]
- EC50 ([2]; Table 4, read-out: hBPGM Phosphatase EC50): 55 nM
- EC50 [2, 3]: 55 nM
